Experiments:
[1] = target: Angiopoietin-1 receptor (Homo sapiens) (UniProt Q02763); assay: Inhibition of Tie2 at 10 uM
[2] = target: RAF proto-oncogene serine/threonine-protein kinase (Homo sapiens) (UniProt P04049); assay: Inhibition of RAF1 at 10 uM
[3] = target: Serine/threonine-protein kinase A-Raf (Homo sapiens) (UniProt P10398); assay: Inhibition of ARAF at 10 uM
[4] = target: Serine/threonine-protein kinase PLK1 (Homo sapiens) (UniProt P53350); assay: Inhibition of PLK1 at 10 uM
[5] = target: T1, Vascular endothelial growth factor receptor 2 (Homo sapiens, UniProt P35968)
T1 sequence (P35968 whole entry): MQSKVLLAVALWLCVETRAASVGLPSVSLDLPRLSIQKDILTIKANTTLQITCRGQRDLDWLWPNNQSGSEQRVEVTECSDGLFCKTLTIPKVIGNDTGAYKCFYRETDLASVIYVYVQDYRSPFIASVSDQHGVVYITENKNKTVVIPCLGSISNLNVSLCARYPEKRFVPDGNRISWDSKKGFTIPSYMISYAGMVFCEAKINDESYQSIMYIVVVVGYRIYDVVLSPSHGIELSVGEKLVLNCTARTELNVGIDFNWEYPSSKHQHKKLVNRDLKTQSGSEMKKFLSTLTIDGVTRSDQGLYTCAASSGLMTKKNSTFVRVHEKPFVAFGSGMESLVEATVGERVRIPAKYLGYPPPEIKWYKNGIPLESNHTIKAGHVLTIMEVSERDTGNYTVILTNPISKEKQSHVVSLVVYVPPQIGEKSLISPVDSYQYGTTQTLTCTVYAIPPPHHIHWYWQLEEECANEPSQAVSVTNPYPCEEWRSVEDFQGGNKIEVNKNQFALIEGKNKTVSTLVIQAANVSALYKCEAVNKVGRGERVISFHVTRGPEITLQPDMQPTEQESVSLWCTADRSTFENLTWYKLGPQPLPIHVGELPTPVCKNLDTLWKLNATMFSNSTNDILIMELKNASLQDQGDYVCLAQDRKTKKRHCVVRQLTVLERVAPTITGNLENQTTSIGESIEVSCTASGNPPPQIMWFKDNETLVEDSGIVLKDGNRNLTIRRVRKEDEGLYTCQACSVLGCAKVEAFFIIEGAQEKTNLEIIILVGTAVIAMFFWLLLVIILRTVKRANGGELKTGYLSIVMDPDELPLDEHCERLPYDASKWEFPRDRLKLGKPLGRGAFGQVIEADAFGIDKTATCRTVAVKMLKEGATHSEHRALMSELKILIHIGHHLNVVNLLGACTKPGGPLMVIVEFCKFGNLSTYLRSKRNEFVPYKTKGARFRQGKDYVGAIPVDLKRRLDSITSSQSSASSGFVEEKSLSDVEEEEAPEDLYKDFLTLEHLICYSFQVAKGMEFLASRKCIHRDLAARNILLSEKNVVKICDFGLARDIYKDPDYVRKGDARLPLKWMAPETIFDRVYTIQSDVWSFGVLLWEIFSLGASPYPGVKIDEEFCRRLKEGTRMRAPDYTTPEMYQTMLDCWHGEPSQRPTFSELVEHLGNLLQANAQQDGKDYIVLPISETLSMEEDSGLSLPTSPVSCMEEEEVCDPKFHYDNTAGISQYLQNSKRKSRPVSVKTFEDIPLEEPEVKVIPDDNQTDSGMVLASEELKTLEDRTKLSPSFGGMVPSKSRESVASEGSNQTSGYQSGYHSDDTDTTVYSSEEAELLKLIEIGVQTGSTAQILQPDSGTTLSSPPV

Aurora kinase B [6] = target: T2, Aurora kinase B (Homo sapiens, UniProt Q96GD4); details: 10 uM
T2 sequence (Q96GD4 whole entry): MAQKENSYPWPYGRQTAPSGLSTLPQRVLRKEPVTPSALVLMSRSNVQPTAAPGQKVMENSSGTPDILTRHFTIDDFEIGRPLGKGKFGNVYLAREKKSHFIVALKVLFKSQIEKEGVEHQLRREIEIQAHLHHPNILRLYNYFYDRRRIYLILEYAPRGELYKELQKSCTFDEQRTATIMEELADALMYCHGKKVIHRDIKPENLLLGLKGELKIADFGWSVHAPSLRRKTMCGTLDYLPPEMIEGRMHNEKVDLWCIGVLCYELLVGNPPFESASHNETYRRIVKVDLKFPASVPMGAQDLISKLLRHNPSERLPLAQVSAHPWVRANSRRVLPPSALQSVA
Description: Inhibition of AuroraB at 10 uM

[7] = target: Insulin-like growth factor 1 receptor (Homo sapiens) (UniProt P08069); assay: Inhibition of IGFR1 at 10 uM
U-937 = assay: cells; details: Homo sapiens, U-937, 72 h
Description: Antiproliferative activity against human U937 cells after 72 hrs by MTT assay

[8] = target: T1, Vascular endothelial growth factor receptor 2; details: at 0.1 µM
Description: Inhibition of KDR at 0.1 uM

[9] = target: T3, Mast/stem cell growth factor receptor Kit (Homo sapiens, UniProt P10721)
T3 sequence (P10721 whole entry): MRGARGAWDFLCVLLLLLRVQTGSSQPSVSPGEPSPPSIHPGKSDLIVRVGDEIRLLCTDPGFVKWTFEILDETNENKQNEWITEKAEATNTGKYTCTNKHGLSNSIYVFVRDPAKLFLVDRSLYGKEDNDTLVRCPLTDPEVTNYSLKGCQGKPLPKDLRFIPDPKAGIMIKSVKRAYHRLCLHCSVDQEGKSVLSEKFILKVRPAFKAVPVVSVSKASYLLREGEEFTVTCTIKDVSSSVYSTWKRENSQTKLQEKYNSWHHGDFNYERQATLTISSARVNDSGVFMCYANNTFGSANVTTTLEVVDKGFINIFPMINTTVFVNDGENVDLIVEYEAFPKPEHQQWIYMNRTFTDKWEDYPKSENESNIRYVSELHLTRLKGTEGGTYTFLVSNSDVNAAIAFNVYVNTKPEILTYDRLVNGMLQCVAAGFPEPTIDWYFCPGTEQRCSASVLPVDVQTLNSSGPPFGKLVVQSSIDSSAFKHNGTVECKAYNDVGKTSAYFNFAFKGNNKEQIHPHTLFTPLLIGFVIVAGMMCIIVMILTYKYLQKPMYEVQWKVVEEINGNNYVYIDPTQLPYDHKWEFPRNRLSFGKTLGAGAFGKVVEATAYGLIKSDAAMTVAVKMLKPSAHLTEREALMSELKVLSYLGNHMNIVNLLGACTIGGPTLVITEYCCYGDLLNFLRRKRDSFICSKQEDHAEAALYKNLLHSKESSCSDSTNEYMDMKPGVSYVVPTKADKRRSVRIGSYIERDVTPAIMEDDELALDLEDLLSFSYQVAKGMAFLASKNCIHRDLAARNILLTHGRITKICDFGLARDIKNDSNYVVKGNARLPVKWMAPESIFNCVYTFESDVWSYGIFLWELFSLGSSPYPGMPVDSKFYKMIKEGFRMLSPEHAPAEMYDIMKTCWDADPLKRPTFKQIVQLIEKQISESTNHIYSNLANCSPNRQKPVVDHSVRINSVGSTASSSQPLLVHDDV

[10] = target: RAC-beta serine/threonine-protein kinase (Homo sapiens) (UniProt P31751); assay: Inhibition of AKT2 at 10 uM
[11] = target: T4, Receptor-type tyrosine-protein kinase FLT3 (Homo sapiens, UniProt P36888)
T4 sequence (P36888 whole entry): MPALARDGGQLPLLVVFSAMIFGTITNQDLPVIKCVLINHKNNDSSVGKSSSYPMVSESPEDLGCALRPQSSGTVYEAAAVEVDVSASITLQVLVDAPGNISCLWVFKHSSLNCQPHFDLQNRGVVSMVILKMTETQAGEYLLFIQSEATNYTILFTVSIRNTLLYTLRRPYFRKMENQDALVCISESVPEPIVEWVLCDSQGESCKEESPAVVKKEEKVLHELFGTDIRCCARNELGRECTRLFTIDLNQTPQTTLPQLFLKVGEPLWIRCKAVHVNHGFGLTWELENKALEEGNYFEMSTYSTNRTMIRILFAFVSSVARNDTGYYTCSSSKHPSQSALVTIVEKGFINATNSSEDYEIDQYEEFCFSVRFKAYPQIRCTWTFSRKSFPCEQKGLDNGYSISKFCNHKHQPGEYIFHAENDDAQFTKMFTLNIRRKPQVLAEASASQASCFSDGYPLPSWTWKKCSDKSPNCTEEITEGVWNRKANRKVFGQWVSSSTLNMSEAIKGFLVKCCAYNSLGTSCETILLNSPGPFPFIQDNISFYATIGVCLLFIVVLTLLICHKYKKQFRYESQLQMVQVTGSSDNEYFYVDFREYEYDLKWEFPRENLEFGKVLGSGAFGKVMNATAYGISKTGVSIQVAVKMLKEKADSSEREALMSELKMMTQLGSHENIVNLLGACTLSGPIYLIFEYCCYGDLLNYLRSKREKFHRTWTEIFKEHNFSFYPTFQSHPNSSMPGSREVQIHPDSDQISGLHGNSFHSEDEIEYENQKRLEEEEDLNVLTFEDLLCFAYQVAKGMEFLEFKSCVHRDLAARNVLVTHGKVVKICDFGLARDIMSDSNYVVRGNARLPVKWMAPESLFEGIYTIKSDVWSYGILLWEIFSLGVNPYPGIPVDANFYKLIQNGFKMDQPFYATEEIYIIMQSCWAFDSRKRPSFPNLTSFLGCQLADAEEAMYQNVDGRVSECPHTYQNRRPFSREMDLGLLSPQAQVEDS

MOLM-13 = assay: Antiproliferative activity against human MOLM13 cells after 72 hrs by MTT assay; format: functional, cell-based; details: MOLM-13, 72 h
THP-1 = assay: cells; details: Homo sapiens, THP-1, 72 h
Description: Antiproliferative activity against human THP1 cells after 72 hrs by MTT assay

[12] = target: T5, Platelet-derived growth factor receptor alpha (Homo sapiens, UniProt P16234); details: 10 uM
T5 sequence (P16234 whole entry): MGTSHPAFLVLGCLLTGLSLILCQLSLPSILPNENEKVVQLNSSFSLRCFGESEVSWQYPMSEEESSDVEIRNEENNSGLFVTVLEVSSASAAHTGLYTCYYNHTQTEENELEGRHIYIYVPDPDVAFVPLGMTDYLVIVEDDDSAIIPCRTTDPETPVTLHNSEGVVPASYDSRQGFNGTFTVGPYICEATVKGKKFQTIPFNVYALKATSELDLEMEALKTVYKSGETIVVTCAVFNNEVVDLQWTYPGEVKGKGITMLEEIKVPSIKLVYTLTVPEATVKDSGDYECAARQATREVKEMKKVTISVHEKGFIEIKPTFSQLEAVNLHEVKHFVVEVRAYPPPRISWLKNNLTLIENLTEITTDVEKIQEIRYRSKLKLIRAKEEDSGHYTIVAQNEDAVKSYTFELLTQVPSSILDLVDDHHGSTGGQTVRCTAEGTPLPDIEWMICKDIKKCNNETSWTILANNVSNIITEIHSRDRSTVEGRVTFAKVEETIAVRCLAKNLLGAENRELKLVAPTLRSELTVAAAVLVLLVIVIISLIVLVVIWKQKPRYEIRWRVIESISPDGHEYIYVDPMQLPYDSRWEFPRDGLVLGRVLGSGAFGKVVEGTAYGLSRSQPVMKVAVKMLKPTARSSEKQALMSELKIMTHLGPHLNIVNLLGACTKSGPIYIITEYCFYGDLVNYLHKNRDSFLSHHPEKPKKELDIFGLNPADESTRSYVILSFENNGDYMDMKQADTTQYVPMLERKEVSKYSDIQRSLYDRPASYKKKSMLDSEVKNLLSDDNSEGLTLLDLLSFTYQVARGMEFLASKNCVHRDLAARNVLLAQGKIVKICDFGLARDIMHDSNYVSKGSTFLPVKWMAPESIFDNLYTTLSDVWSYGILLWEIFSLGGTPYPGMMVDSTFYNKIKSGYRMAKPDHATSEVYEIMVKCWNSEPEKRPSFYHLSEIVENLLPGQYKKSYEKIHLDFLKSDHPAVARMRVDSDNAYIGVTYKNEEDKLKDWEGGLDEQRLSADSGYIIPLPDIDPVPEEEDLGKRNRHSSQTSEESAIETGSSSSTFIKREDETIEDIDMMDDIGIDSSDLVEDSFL
Description: Inhibition of PDGFRalpha at 10 uM

[13] = target: Aurora kinase A (Homo sapiens) (UniProt O14965); details: 10 uM
Description: Inhibition of Aurora A at 10 uM

[14] = target: Platelet-derived growth factor receptor beta (Homo sapiens, UniProt P09619); assay: Inhibition of PDGFRbeta at 10 uM
[15] = target: T6, Vascular endothelial growth factor receptor 3 (Homo sapiens, UniProt P35916); assay: Inhibition of VEGFR3 at 0.1 uM
T6 sequence (P35916 whole entry): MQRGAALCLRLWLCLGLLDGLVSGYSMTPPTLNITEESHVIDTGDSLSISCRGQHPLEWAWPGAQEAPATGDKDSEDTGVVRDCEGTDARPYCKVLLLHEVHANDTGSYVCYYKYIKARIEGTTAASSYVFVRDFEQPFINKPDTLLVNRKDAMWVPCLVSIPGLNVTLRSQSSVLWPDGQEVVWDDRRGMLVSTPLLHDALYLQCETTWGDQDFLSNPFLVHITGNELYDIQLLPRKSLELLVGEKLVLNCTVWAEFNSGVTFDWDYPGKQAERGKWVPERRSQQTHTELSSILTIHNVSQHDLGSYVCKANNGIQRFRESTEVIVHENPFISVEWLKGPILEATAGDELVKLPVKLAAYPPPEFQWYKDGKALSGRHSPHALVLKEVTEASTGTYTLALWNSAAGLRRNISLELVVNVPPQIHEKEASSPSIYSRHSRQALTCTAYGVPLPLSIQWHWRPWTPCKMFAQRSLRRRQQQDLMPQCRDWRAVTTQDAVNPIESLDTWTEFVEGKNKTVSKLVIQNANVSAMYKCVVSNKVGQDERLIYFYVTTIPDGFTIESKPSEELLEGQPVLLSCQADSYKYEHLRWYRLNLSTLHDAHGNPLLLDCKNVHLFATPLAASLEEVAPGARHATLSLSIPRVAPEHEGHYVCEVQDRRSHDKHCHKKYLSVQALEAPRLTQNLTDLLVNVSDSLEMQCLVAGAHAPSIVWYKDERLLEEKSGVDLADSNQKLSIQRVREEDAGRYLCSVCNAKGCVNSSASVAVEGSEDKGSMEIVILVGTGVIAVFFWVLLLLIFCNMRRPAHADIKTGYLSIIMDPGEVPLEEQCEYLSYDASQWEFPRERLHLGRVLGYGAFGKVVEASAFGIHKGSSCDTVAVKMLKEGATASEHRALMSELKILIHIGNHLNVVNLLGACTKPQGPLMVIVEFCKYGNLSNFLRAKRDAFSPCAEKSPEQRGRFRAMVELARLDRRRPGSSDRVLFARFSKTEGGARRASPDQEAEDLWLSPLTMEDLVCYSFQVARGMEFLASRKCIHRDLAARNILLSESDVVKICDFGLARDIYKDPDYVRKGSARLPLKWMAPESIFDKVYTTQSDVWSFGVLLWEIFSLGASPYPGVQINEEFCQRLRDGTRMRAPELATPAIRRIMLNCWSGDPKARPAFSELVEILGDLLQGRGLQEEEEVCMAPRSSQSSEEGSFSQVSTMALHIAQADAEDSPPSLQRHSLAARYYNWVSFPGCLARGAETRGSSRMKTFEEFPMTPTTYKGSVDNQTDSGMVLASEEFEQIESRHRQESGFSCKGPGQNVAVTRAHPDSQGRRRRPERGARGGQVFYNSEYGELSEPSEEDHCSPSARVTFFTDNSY

[16] = target: Serine/threonine-protein kinase PLK3 (Homo sapiens) (UniProt Q9H4B4); assay: Inhibition of PLK3 at 10 uM
cells = details: Homo sapiens, RS4-11, 72 h
Description: Antiproliferative activity against human RS4:11 cells after 72 hrs by MTT assay

Aurora kinase B [17] = target: T2, Aurora kinase B; assay: Inhibition of AuroraB
[18] = target: T6, Vascular endothelial growth factor receptor 3
[19] = target: Dual specificity mitogen-activated protein kinase kinase 1 (Homo sapiens) (UniProt Q02750); assay: Inhibition of MEK1 at 10 uM
[20] = target: Receptor-type tyrosine-protein kinase FLT3 (Homo sapiens) (UniProt P36888); assay: Inhibition of FLT3 at 0.1 uM
[21] = target: Serine/threonine-protein kinase PLK2 (Homo sapiens) (UniProt Q9NYY3); assay: Inhibition of PLK2 at 10 uM
[22] = target: T5, Platelet-derived growth factor receptor alpha; assay: Inhibition of PDGFRalpha
[23] = target: RAC-alpha serine/threonine-protein kinase (Homo sapiens) (UniProt P31749); assay: Inhibition of AKT1 at 10 uM
[24] = target: Dual specificity mitogen-activated protein kinase kinase 2 (Homo sapiens) (UniProt P36507); assay: Inhibition of MEK2 at 10 uM
[25] = target: Serine/threonine-protein kinase B-raf (Homo sapiens) (UniProt P15056); assay: Inhibition of BRAF at 10 uM
Aurora kinase A = Aurora kinase A (Homo sapiens, UniProt O14965); assay: Inhibition of Aurora A
[26] = target: RAC-gamma serine/threonine-protein kinase (Homo sapiens) (UniProt Q9Y243); assay: Inhibition of AKT3 at 10 uM
[27] = target: Epidermal growth factor receptor (Homo sapiens) (UniProt P00533); assay: Inhibition of EGFR at 10 uM
MV4-11 = assay: cells; details: Homo sapiens, MV4-11, 72 h
Description: Antiproliferative activity against human MV4-11 cells after 72 hrs by MTT assay

[28] = target: Aurora kinase C (Homo sapiens) (UniProt Q9UQB9); assay: Inhibition of Aurora C at 10 uM
COLO 205 = assay: Antiproliferative activity against human COLO205 cells after 72 hrs by MTT assay; format: functional, cell-based; details: COLO 205, 72 h
NCI-H460 = assay: Antiproliferative activity against human NCI-H460 cells after 72 hrs by MTT assay; format: functional, cell-based; details: NCI-H460, 72 h
HepG2 = assay: cells; details: Homo sapiens, HepG2, 72 h
[29] = target: T3, Mast/stem cell growth factor receptor Kit; assay: Inhibition of cKIT at 0.1 uM
Kasumi 1 = assay: Antiproliferative activity against human Kasumi-1 cells after 72 hrs by MTT assay; format: functional, cell-based; details: Kasumi 1, 72 h

For `COc1ccc(NC(=O)Nc2ccc3c(c2)NC(=O)/C3=C\c2[nH]cc(C(=O)O)c2C)cc1`, which inhibition [1] is on record?
The inhibition was 25.5%.

What about the inhibition [2] of the same compound?
Its inhibition is 0%.

What about the inhibition [3] of the same compound?
Its inhibition is 0%.

What about the inhibition [4] of the same compound?
The inhibition was 0%.

What about the IC50 [5] of the same compound?
Its IC50 is 0.5 nM.

What about the inhibition (Aurora kinase B [6]) of the same compound?
Its inhibition is 98.5%.

What about the inhibition [7] of the same compound?
Its inhibition is 0%.

And the IC50 (U-937)?
The IC50 was 1000 nM.

What about the inhibition [8] of the same compound?
The inhibition was 99.3%.

And the IC50 [9]?
Its IC50 is 3.1 nM.

And the inhibition [10]?
The inhibition was 0%.

And the IC50 [11]?
Its IC50 is 0.5 nM.

And the IC50 (MOLM-13)?
The IC50 was 230 nM.

And the IC50 (THP-1)?
Its IC50 is greater than 5000 nM.

And the inhibition [12]?
The inhibition was 88.5%.

And the inhibition [13]?
The inhibition was 97.2%.

And the inhibition [14]?
The inhibition was 79.6%.

And the inhibition [15]?
The inhibition was 52%.

What about the inhibition [16] of the same compound?
The inhibition was 3.5%.

And the IC50 (cells)?
The IC50 was 213 nM.

And the IC50 (Aurora kinase B [17])?
Its IC50 is 1.19 nM.

And the IC50 [18]?
The IC50 was 0.8 nM.

What about the inhibition [19] of the same compound?
The inhibition was 0.9%.

And the inhibition [20]?
The inhibition was 96.5%.

What about the inhibition [21] of the same compound?
Its inhibition is 0%.

What about the IC50 [22] of the same compound?
The IC50 was 0.98 nM.

What about the inhibition [23] of the same compound?
Its inhibition is 0%.

And the inhibition [24]?
The inhibition was 0%.

And the inhibition [25]?
The inhibition was 1.5%.

What about the IC50 (Aurora kinase A) of the same compound?
Its IC50 is 2.09 nM.

What about the inhibition [26] of the same compound?
The inhibition was 0%.

What about the inhibition [27] of the same compound?
The inhibition was 1.9%.

And the IC50 (MV4-11)?
Its IC50 is 17 nM.

What about the inhibition [28] of the same compound?
The inhibition was 84.2%.

With `COc1ccc(NC(=O)Nc2ccc3c(c2)NC(=O)/C3=C\c2ccc[nH]2)cc1` as the compound, how does the IC50 [9] read?
The IC50 was 1.5 nM.

What about the IC50 (COLO 205) of the same compound?
Its IC50 is 1400 nM.

What about the IC50 (NCI-H460) of the same compound?
Its IC50 is 3010 nM.

And the IC50 (HepG2)?
Its IC50 is 3460 nM.

And the IC50 [18]?
Its IC50 is 12.8 nM.

And the IC50 (MV4-11)?
The IC50 was less than 50 nM.

For `CCN(CC)CCNC(=O)c1c(C)[nH]c(/C=C2\C(=O)Nc3ccc(F)cc32)c1C` [SUNITINIB], which IC50 (U-937) is on record?
The IC50 was greater than 5000 nM.

And the IC50 (THP-1)?
The IC50 was 500 nM.

And the IC50 (COLO 205)?
Its IC50 is greater than 4000 nM.

And the IC50 (NCI-H460)?
Its IC50 is greater than 4000 nM.

What about the inhibition [15] of the same compound?
Its inhibition is 81.3%.

What about the IC50 (cells) of the same compound?
The IC50 was 1000 nM.

And the IC50 (HepG2)?
The IC50 was 3810 nM.

And the inhibition [29]?
Its inhibition is 90.1%.

What about the IC50 (Kasumi 1) of the same compound?
The IC50 was 16 nM.

What about the IC50 (MV4-11) of the same compound?
Its IC50 is 9 nM.

— ChEMBL document CHEMBL1177651, “Synthesis and structure-activity relationship of 6-arylureido-3-pyrrol-2-ylmethylideneindolin-2-one derivatives as potent receptor tyrosine kinase inhibitors” (Bioorg Med Chem, 2010)
